Experimental data as given in US20240058318A1, “DEGRADING PKCB1 TO TREAT CANCER” (Mayo Foundation for Medical Education and Research, priority 2020, published 2024).

Key:
[1] = tested on: Rb-proficient (MDAMB231) and Rb-deficient (BT549 and MDAMB436) TNBC cells; assay: CV proliferation assay, TNBC cells (statements across lines); assay type: cell-based; conditions: Rb-proficient and Rb-deficient TNBC cells, CV assay
Procedure: (§1) Cell proliferation rates were determined using crystal violet assays. One thousand cells per well were plated in 96 well tissue culture plates and treated the following day with a bifunctional compound or control for 7 days in replicates of 8. Cells were fixed with 25% glutaraldehyde for 10 minutes with shaking, washed 5 times with distilled water, stained with a 1% crystal violet solution (solubilized in 25% methanol) for 10 minutes, washed again 5 times and allowed to dry. De-staining was performed using […] sodium citrate in 50% ethanol followed by quantification using a 96 well spectrophotometer set at an absorbance of 550 nm.
as §1, with “using CV” for “using crystal violet”, “assays. Two” for “assays. One”, “thousand (2000) or 4000” for “thousand”, “for 6” for “for 7”, “of 6.” for “of 8.”

[2] = tested on: MDAH-2774 and KURAMOCHI ovarian cancer cells; assay: CV proliferation assay, ovarian cancer cells (statements across lines); assay type: cell-based; conditions: MDAH-2774 and KURAMOCHI cells
Procedure: as §1
Based on the potent anti-proliferative activity of ENDX-PROTACs TC-Pr-006, TC-Pr-007, TC-Pr -008, and TC-Pr -009 in TNBC cells, the efficacy of these compounds for inhibiting the growth of ovarian cancer cells was tested. This analysis utilized KURAMOCHI cells, which represent the high-grade serous subtype (the most malignant form that accounts for 70% of all ovarian cancers and associates with poor clinical outcome) and MDAH-2774 cells, which represent endometrioid ovarian cancer and accounts for 20% of all ovarian cancer. PKCβ1 was confirmed to be expressed in both ovarian cancer cell line models, with MDAH-2774 cells expressing higher amounts of PKCβ1 compared to KURAMOCHI cells (FIG. 5A).

CC/C(=C(\c1ccc(O)cc1)c1ccc(OCCNC)cc1)c1ccccc1 [ENDX, endoxifen, reference compound]
concentration inhibiting growth of TNBC cells [1]: > 5 µM | concentration inhibiting growth of ovarian cancer cells [2]: 10 µM
